These results are taken from US20110160399A1, “HISTONE MODIFICATION INHIBITOR SPECIFIC TO TARGET GENE” (NIHON UNIVERSITY, priority 2008, published 2011).

One test deals with LARP1 gene expression. Briefly: Expression analysis of LARP1 gene by quantitative PCR in HEK293 cells. It is filed as cell-based, human. As to conditions: 150 nM, one week, compared to esterified SAHA+p16 PIP or SAHA+non-targeting PIP, FIG. 11. As to the method: HEK293 cells were used to analyze LARP1 gene expression. HEK293 cells are a cell line established by transformation of human embryonic kidney cells with the adenovirus E1 gene. The LARP1 gene includes, in its gene region, a sequence similar to the sequence of the regulatory region in the p16 gene recognized by SAHA+p16 PIP, as described above. More specifically, the expression analysis was accomplished as follows. HEK293 cells were cultured in DMEM growth medium containing 10% fetal calf serum (FCS). During culture, the medium was replaced every two days by a culture solution containing the synthesized compound (SAHA+p16 PIP, esterified SAHA+p16 PIP or SAHA+non-targeting PIP) at a final concentration of 150 nM, and cell culture was continued for one week in the medium containing the above synthesized compound. After one week, the cells were lysed with 1 ml of TRIzol and then mixed with 200 μl of chloroform, followed by centrifugation at 12000×g at 4° C. for 10 minutes. Then, the supernatant was mixed with an equal volume of isopropanol and centrifuged at 12000×g at 4° C. for 10 minutes. Then, the pellet was washed with a 70% ethanol solution and centrifuged at 5000×g for 5 minutes to remove the supernatant. […] The RNA (1 μg) was used as a template to synthesize cDNA, followed by quantitative PCR. […]

The subject of test [1] is SW480 (human large bowel cancer cell line). Briefly: Cell proliferation assay (WST-8) on SW480 cells. In kind it is cell-based. The conditions noted are these: SW480, 72 hours, FIG. 4. As to the method: (§1) Next, the synthesized compounds were verified by WST-8 assay for their ability to suppress cancer cell proliferation.
(§2) Cell lines of HeLa (human uterine cervical cancer cell line), LOVO, RKO and SW480 (each of which was a human large bowel cancer cell line) were each cultured at 37° C. under 5% carbon dioxide conditions using Dulbecco's modified Eagle's medium (DMEM, Nacalai Tesque, Inc., Japan) supplemented with 10% fetal bovine serum (FBS: JRH bioscience, USA), antibiotics (50 U/ml penicillin and 50 μg/ml streptomycin) and 1 mM sodium pyruvate. […]
(§3) Each cell line seeded at 3×10^3 cells/well in a MICROTEST tissue culture plate (96 well, FALCON) was cultured at 37° C. under 5% carbon dioxide conditions for 24 hours, and then cultured in the presence of various concentrations of PI polyamide for an additional 72 hours. After completion of the culture, 10 μl of viable cell counting reagent SF (Nacalai Tesque, Inc., Japan) was added to each well and the absorbance at 450 nm was measured by ARVO EX (PerkinElmer). During the period from reagent addition until assay, incubation was continued at 37° C. in the presence of 5% CO2 until the absorbance reached about 1.2 to 2.0 in the control sample where only 50% DMSO was added to the cells.

The subject of test [2] is LOVO (human large bowel cancer cell line). As to the kind of experiment: Cell proliferation assay (WST-8) on LOVO cells. In kind it is cell-based. The conditions noted are these: 72 hours. As to the method: as §1, §2, §3

`CN(C)CCCNC(=O)CCNC(=O)c1cc(NC(=O)c2nc(NC(=O)c3nc(NC(=O)CCNC(=O)c4cc(NC(=O)c5nc(NC(=O)CCCNC(=O)c6cc(NC(=O)c7nc(NC(=O)CCNC(=O)c8cc(NC(=O)c9cc(NC(=O)c%10nc(NC(=O)CCNC(=O)CCNC(=O)c%11ccc(NC(=O)CCCCCCC(=O)NO)cc%11)cn%10C)cn9C)cn8C)cn7C)cn6C)cn5C)cn4C)cn3C)cn2C)cn1C` [SAHA+p16 PIP, SAHA-ββImPyPyβImPyγImPyβImImPyβDp]: the “expression of the LARP1 gene” value with LARP1 gene expression is listed as “increased expression”. Moreover, the “inhibition of SW480 cell proliferation” value in test [1] is “inhibit proliferation”. In test [2] (100 nM, FIG. 4), the “suppression of LOVO cell proliferation at 100 nM” value was “not suppressed”. Moreover, in test [2] (WST-8, FIG. 4), the “inhibition of LOVO cell proliferation” value is given as “inhibit proliferation”.
